Assay results reported in patent US12091411B2, “IRAK degraders and uses thereof” (Kymera Therapeutics, Inc., priority 2022, dated 2024).
Like-named read-outs stand apart in the source and are kept apart here.

Target: T1, IRAK4 (Homo sapiens, UniProt Q9NWZ3)
T1 construct: Degradation of IRAK4 in OCI-LY10 was quantitatively measured using Meso Scale Discovery technology; endogenous in cells; host or cells: OCI-LY10
T1 sequence (Q9NWZ3 1-460): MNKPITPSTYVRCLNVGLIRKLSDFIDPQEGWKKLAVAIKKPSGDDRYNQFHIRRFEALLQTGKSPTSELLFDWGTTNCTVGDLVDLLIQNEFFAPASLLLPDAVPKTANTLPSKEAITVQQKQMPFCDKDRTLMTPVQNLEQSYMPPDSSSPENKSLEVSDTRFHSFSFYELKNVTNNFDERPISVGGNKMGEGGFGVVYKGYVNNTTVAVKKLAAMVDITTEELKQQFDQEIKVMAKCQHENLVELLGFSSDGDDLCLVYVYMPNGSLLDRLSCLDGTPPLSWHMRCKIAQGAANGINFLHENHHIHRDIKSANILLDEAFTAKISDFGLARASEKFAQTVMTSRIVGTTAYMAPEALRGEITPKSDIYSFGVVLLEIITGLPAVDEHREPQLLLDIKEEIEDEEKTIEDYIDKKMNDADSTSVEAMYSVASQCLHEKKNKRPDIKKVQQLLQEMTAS
Assay: IRAK4 MSD Degradation in OCI-LY10
Assay type: cell-based
Conditions: OCI-LY10 cells, MSD
Method: Degradation of IRAK4 in OCI-LY10 was quantitatively measured using Meso Scale Discovery technology. […] Compounds were then added to the assay plates with a final top concentration of 1 to 10 μM in a 1:3 dilution series with total of 8 doses. The assay plates were then incubated for 4 to 24 hours at 37° C. under 5% CO2. […] To prepare MSD assay plates (Meso Scale Discovery Catalog number L15XA-3), the plates were coated with 2 μg/mL capture antibody (mouse Anti-IRAK4 antibody [2H9], ab119942) in PBS, at 40 μL/well. […] Cell lysates were then added to MSD assay plates and the plates were incubated at room temperature for 1 hour. The plates were then washed 3 times with 150 μL/well TBST buffer and 25 μL/well primary detection antibody (rabbit Anti-IRAK4 antibody [Y279], from Abcam. Catalog number ab32511, 1 μg/mL). The assay plates were then incubated at room temperature for 1 hour, washed 3 times with 150 μL/well TBST buffer and 25 μL/well secondary detection antibody, SULFO-TAG anti-rabbit antibody were added (anti-rabbit antibody from Meso Scale Discovery, Catalog number R32AB-1, 1 μg/mL). The assay plates were then incubated at room temperature for 1 hour, washed 3 times with 150 μL/well TBST buffer, and 150 μL/well MSD reading buffer (Meso Scale Discovery catalog number R92TC-2) was added. The plates were then analyzed by a MSD reader (Meso Scale Discovery, Model Quick Plex SQ 120). The data was then analyzed by software Prism 7.0 from GraphPad and the dose-depended IRAK4 degradation were fit using a three-parameter logistic equation to calculate DC50.
The letter codes for IRAK4 DC50 include: A (<0.01 μM); B (0.01 to <0.1 μM); C (0.1 to 0.2 μM); and D (>0.2 μM or not tested).

[1] = 4 hrs incubation, read-out: IRAK4 degradation in OCI-LY10 at 4 hrs: DC50
[2] = 24 hrs incubation, read-out: IRAK4 degradation in OCI-LY10 at 24 hrs: DC50

SMILES	DC50 [1]	DC50 [2]
C[C@@H]1CN(C[C@H]2CC[C@H](n3cc(NC(=O)c4cnn5ccc(N6C[C@@H]7C[C@H]6CO7)nc45)c(C(F)F)n3)CC2)CC[C@H]1OCC#Cc1cccc2c1n(C)c(=O)n2C1CCC(=O)NC1=O (stereo partly drawn) [I-48]	10 to 100 nM	> 200 nM
C[C@@H]1CN(C[C@H]2CC[C@H](n3cc(NC(=O)c4cnn5ccc(N6C[C@H]7C[C@@H]6CO7)nc45)c(C(F)F)n3)CC2)CC[C@H]1OCC#Cc1ccc2c(N3CCC(=O)NC3=O)cncc2c1 [I-49]	10 to 100 nM	> 200 nM
Cn1c(=O)n(C2CCC(=O)NC2=O)c2cccc(C#CCN3C[C@@H]4C[C@H]3CN4C[C@H]3CC[C@H](n4cc(NC(=O)c5cnn6ccc(N7C[C@H]8C[C@@H]7CO8)nc56)c(C(F)F)n4)CC3)c21 (stereo partly drawn) [I-50]	10 to 100 nM	> 200 nM
COc1ccc2c(c1C#CCO[C@H]1CCN(C[C@H]3CC[C@H](n4cc(NC(=O)c5cnn6ccc(N7C[C@H]8C[C@@H]7CO8)nc56)c(C(F)F)n4)CC3)C[C@H]1F)n(C)c(=O)n2C1CCC(=O)NC1=O (stereo partly drawn) [I-51]	10 to 100 nM	> 200 nM
O=C1CCN(c2cncc3c(C#CCO[C@@H]4CCN(C[C@H]5C[C@H](n6cc(NC(=O)c7cnn8ccc(N9C[C@H]%10C[C@@H]9CO%10)nc78)c(C(F)F)n6)C5)C[C@@H]4F)cccc23)C(=O)N1 [I-52]	< 10 nM	> 200 nM
C[C@H]1CN(C[C@H]2C[C@H](n3cc(NC(=O)c4cnn5ccc(N6C[C@H]7C[C@@H]6CO7)nc45)c(C(F)F)n3)C2)CC[C@@H]1OCC#Cc1cccc2c(N3CCC(=O)NC3=O)cncc12 [I-53]	< 10 nM	> 200 nM
COc1ccc2c(c1C#CCO[C@@H]1CCN(C[C@H]3C[C@H](n4cc(NC(=O)c5cnn6ccc(N7C[C@H]8C[C@@H]7CO8)nc56)c(C(F)F)n4)C3)C[C@@H]1F)n(C)c(=O)n2C1CCC(=O)NC1=O (stereo partly drawn) [I-54]	< 10 nM	> 200 nM
C[C@@H]1CN(C[C@H]2CC[C@H](n3cc(NC(=O)c4cnn5ccc(N6C[C@H]7C[C@@H]6CO7)nc45)c(C(F)F)n3)CC2)CC[C@H]1OCC#Cc1cccc2c(N3CCC(=O)NC3=O)cncc12 [I-55]	10 to 100 nM	> 200 nM
C[C@H]1CN(C[C@H]2CC[C@H](n3cc(NC(=O)c4cnn5ccc(N6C[C@H]7C[C@@H]6CO7)nc45)c(C(F)F)n3)CC2)CC[C@@H]1OCC#Cc1cccc2c(N3CCC(=O)NC3=O)cncc12 [I-56]	< 10 nM	> 200 nM
C[C@H]1CN(C[C@H]2CC[C@H](n3cc(NC(=O)c4cnn5ccc(N6C[C@H]7C[C@@H]6CO7)nc45)c(C(F)F)n3)CC2)CC[C@@H]1OCC#Cc1ccc2c(N3CCC(=O)NC3=O)cncc2c1 [I-57]	10 to 100 nM	> 200 nM
COc1ccc2c(c1C#CCO[C@H]1CCN(C[C@H]3CC[C@H](n4cc(NC(=O)c5cnn6ccc(N7C[C@H]8C[C@@H]7CO8)nc56)c(C(F)F)n4)CC3)C[C@@H]1C)n(C)c(=O)n2C1CCC(=O)NC1=O (stereo partly drawn) [I-58]	< 10 nM	> 200 nM
CCn1c(=O)n(C2CCC(=O)NC2=O)c2cccc(C#CCO[C@H]3CCN(C[C@H]4CC[C@H](n5cc(NC(=O)c6cnn7ccc(N8C[C@H]9C[C@@H]8CO9)nc67)c(C(F)F)n5)CC4)C[C@@H]3C)c21 (stereo partly drawn) [I-59]	< 10 nM	> 200 nM
CCn1c(=O)n(C2CCC(=O)NC2=O)c2cccc(C#CCN3CCN(C[C@H]4CC[C@H](n5cc(NC(=O)c6cnn7ccc(N8C[C@H]9C[C@@H]8CO9)nc67)c(C(F)F)n5)CC4)CC3)c21 (stereo partly drawn) [I-60]	< 10 nM	> 200 nM
Cn1c(=O)n(C2CCC(=O)NC2=O)c2cccc(N3CCN(C4CCN(C[C@H]5CC[C@H](n6cc(NC(=O)c7cnn8ccc(N9C[C@H]%10C[C@@H]9CO%10)nc78)c(C(F)F)n6)CC5)CC4)CC3)c21 (stereo partly drawn) [I-62]	< 10 nM	> 200 nM
C[C@H]1CN(C[C@H]2CC[C@H](n3cc(NC(=O)c4cnn5ccc(N6C[C@H]7C[C@@H]6CO7)nc45)c(C(F)F)n3)CC2)CC[C@@H]1OCC#Cc1cccc2c1n(C1CC1)c(=O)n2C1CCC(=O)NC1=O (stereo partly drawn) [I-63]	< 10 nM	> 200 nM
COc1ccc2c(c1C#CCO[C@@H]1CCN(C[C@H]3CC[C@H](n4cc(NC(=O)c5cnn6ccc(N7C[C@H]8C[C@@H]7CO8)nc56)c(C(F)F)n4)CC3)C[C@H]1C)n(C)c(=O)n2C1CCC(=O)NC1=O (stereo partly drawn) [I-64]	< 10 nM	> 200 nM
O=C1CCC(n2c(=O)n(C3CC3)c3c(C#CCOC4CCN(C[C@H]5CC[C@H](n6cc(NC(=O)c7cnn8ccc(N9C[C@H]%10C[C@@H]9CO%10)nc78)c(C(F)F)n6)CC5)CC4)cccc32)C(=O)N1 (stereo partly drawn) [I-65]	< 10 nM	> 200 nM
Cn1c(=O)n(C2CCC(=O)NC2=O)c2cccc(C3CC(CN4CCN(C[C@H]5CC[C@H](n6cc(NC(=O)c7cnn8ccc(N9C[C@H]%10C[C@@H]9CO%10)nc78)c(C(F)F)n6)CC5)CC4)C3)c21 (stereo partly drawn) [I-66]	< 10 nM	> 200 nM
Cn1c(=O)n(C2CCC(=O)NC2=O)c2cccc(C3CC(OC4CCN(C[C@H]5CC[C@H](n6cc(NC(=O)c7cnn8ccc(N9C[C@H]%10C[C@@H]9CO%10)nc78)c(C(F)F)n6)CC5)CC4)C3)c21 (stereo partly drawn) [I-68]	< 10 nM	> 200 nM
Cn1c(=O)n(C2CCC(=O)NC2=O)c2cccc(N3CCC(N4CCN(C[C@H]5CC[C@H](n6cc(NC(=O)c7cnn8ccc(N9C[C@H]%10C[C@@H]9CO%10)nc78)c(C(F)F)n6)CC5)CC4)CC3)c21 (stereo partly drawn) [I-69]	< 10 nM	> 200 nM
CCn1c(=O)n(C2CCC(=O)NC2=O)c2cccc(C#CCOC3CCN(C[C@H]4CC[C@H](n5cc(NC(=O)c6cnn7ccc(N8C[C@H]9C[C@@H]8CO9)nc67)c(C(F)F)n5)CC4)CC3)c21 (stereo partly drawn) [I-70]	< 10 nM	> 200 nM
O=C1CCN(c2cncc3c(C4CCN(C5CCN(C[C@H]6CC[C@H](n7cc(NC(=O)c8cnn9ccc(N%10C[C@H]%11C[C@@H]%10CO%11)nc89)c(C(F)F)n7)CC6)CC5)CC4)cccc23)C(=O)N1 [I-74]	< 10 nM	> 200 nM
O=C1CCN(c2cncc3cc(C4CCN(C5CCN(C[C@H]6CC[C@H](n7cc(NC(=O)c8cnn9ccc(N%10C[C@H]%11C[C@@H]%10CO%11)nc89)c(C(F)F)n7)CC6)CC5)CC4)ccc23)C(=O)N1 [I-75]	< 10 nM	> 200 nM
O=C1CCN(c2cncc3c(N4CCN(C5CCN(C[C@H]6CC[C@H](n7cc(NC(=O)c8cnn9ccc(N%10C[C@H]%11C[C@@H]%10CO%11)nc89)c(C(F)F)n7)CC6)CC5)CC4)cccc23)C(=O)N1 [I-76]	< 10 nM	> 200 nM
O=C1CCN(c2cncc3cc(N4CCN(C5CCN(C[C@H]6CC[C@H](n7cc(NC(=O)c8cnn9ccc(N%10C[C@H]%11C[C@@H]%10CO%11)nc89)c(C(F)F)n7)CC6)CC5)CC4)ccc23)C(=O)N1 [I-77]	< 10 nM	> 200 nM
Cn1c(=O)n(C2CCC(=O)NC2=O)c2cccc([C@H]3C[C@@H](CN4CCN(C[C@H]5CC[C@H](n6cc(NC(=O)c7cnn8ccc(N9C[C@H]%10CC9CO%10)nc78)c(C(F)F)n6)CC5)CC4)C3)c21 (stereo partly drawn) [I-78]	< 10 nM	> 200 nM
Cn1c(=O)n(C2CCC(=O)NC2=O)c2cccc([C@H]3C[C@H](CN4CCN(C[C@H]5CC[C@H](n6cc(NC(=O)c7cnn8ccc(N9C[C@H]%10C[C@@H]9CO%10)nc78)c(C(F)F)n6)CC5)CC4)C3)c21 (stereo partly drawn) [I-79]	< 10 nM	> 200 nM
C[C@H]1CN(C[C@H]2CC[C@H](n3cc(NC(=O)c4cnn5ccc(N6C[C@@H]7C[C@H]6CO7)nc45)c(C(F)F)n3)CC2)CC[C@@H]1OCC#Cc1cccc2c1n(C)c(=O)n2[C@@H]1CCC(=O)NC1=O [I-80]	10 to 100 nM	> 200 nM
Cn1c(=O)n(C2CCC(=O)NC2=O)c2cccc([C@H]3C[C@@H](OC4CCN(C[C@H]5CC[C@H](n6cc(NC(=O)c7cnn8ccc(N9C[C@H]%10C[C@@H]9CO%10)nc78)c(C(F)F)n6)CC5)CC4)C3)c21 (stereo partly drawn) [I-81]	< 10 nM	> 200 nM
Cn1c(=O)n(C2CCC(=O)NC2=O)c2cccc([C@H]3C[C@H](OC4CCN(C[C@H]5CC[C@H](n6cc(NC(=O)c7cnn8ccc(N9C[C@H]%10C[C@@H]9CO%10)nc78)c(C(F)F)n6)CC5)CC4)C3)c21 (stereo partly drawn) [I-82]	> 200 nM	> 200 nM
